Read-outs that look alike come from different tables or passages of the source.
Test system: HERCEPTIN-resistant BTRes1 cells
Settings: drug with control Fab, compared to BT474

Question: `O=P1(N(CCCl)CCCl)NCCCO1` (centres unmarked) [cyclophosphamide] was tested. Which “cytotoxic effect of the drug in cells that acquired HERCEPTIN® resistance” value did it give?
Answer: acquired resistance

Question: What about the “cytotoxic effect of the drug in cells that acquired HERCEPTIN® resistance” value (listed as Cyclophosphamide) of the same compound?
Answer: lost
